Literature values as cited in patent publication EP0986632B1, “DELIVERY SYSTEMS” (THE PROCTER & GAMBLE COMPANY, priority 1997, dated 1998).

Details: 25°C; from M. L. Tobe, Adv. Inorg Bioinorg. Mech. (1983), 2, Table 1 at page 17

base hydrolysis rates (kOH) [M⁻¹ s⁻¹] | Molecule
0.0005 | N#CS [NCS^-]
0.00096 | CC(=O)O [acetate]
0.00025 | oxalate

Molecule | base hydrolysis rates (kOH) [M⁻¹ s⁻¹]
O=CO [formate] | 0.00058
